System: MEC-1 cells
Assay: Cytotoxicity (ADCC assay with NK effector cells) of MOR00208 and venetoclax alone and in combination in MEC-1 cells
Type: cell-based
From the text: Cell lines tested: MEC-1 cells (DSMZ# ACC497). Culture conditions of cell lines used are according to supplier's information. Cell Medium: lscove's Modified Dulbecco's Medium (IMDM), Invitrogen, Cat No.: 31980; RPMI1640, Invitrogen, Cat No.: 31870; GlutaMAX, Invitrogen, CAT No.: 35050; FCS: Sigma CAT No.: F7524 LOT No.: 111M3396. NKs: RPMI1640, with GlutaMAX, Invitrogen, Cat No.: 31870, 10% FCS; Biocoll: Biochrome AG CAT No.: L6115 LOT No.: 0034D; MACS NK cell isolation kit: Miltenyi Biotec CAT No.: 130-092-657 LOT No.: 5150402327; venetoclax: Selleck Chem. CAT No.: S8048 LOT No.: S804803; FCS: Sigma CAT No.: F7524 LOT No.: 111M3396; and RefmAb33 (anti-RSV) with same Fc region as MOR00208.
The cytotoxic potential of MOR00208 and venetoclax alone and in combination were tested in the MEC-1 cell line (CLL). Target cell killing is measured using the following parameters: venetoclax mono treatment at concentrations of 3 μM, 6.5 μM, and 10 μM; MOR00208 mono treatment at concentrations of 0.01 pM, 0.1 pM, 1 pM, 10 pM, 100 pM and 10 nM, and the combination treatment of the listed venetoclax and MOR00208 concentrations. The following are used as controls: RefnnAb33, NK cells alone, MEC-1 cells alone or DMSO. In the venetoclax mono groups as well as in the MOR00208+venetoclax combination groups, target cells were pretreated with venetoclax or with DMSO control for 24 hours followed by removal of the dead cells prior to the ADCC assay. A dead cell removal kit was used to remove cells killed by the cytotoxic effect of venetoclax. The dead cell removal kit was implemented to mimick the removal of dead cells that also occurs in vivo and to prevent false negative interference of the dead cells with the subsequent ADCC assay. For the ADCC assay, target cells are counted and stained using CFSE at a final concentration of 1 μg/mL. For the control group, i.e. DMSO treated target cells, the effector: target (E:T) cell ratio was adjusted to 2:1, i.e. 1×10E6/nnL effector cells (NK cells) and 5×10E5/mL target cells (MEC-1 cells). […] The ADCC assays were performed as follows: using 96 well plates, 100 μL of MEC-1 target cell suspension was added per well, followed by 100 μL NK effector cell suspension per well. Mixed cell suspensions were centrifuged and resuspended in 100 μL antibody containing medium or the according control solution. The antibodies were diluted in a range of 10 nM-0.01 pM (corresponds to 1.5 μg/mL-1.5 pg/mL) in medium. The ADCC assays were incubated for 2 hours in a CO2-incubator at 37° C. After 10 minutes incubation on ice, 50 μL DAPI solution was added to each well (final concentration 1 μg/mL) and incubated for additional 10 minutes on ice. The ADCC measurements were performed on a BD FACSVerse instrument. Dead target cells were identified as DAPI positive cells.
Combination Index (CI) calculations are completed in order to determine synergy of the combination of the exemplified anti-CD19 antibody and venetoclax as compared to MOR00208 and venetoclax alone. Such calculations are described in Ting-Chao Chou, Theoretical Basis, Experimental Design, and Computerized Simulation of Synergism and Antagonism in Drug Combination Studies, Pharmacol Rev 58:621-681 (2006), which is incorporated by reference in its entirety and Chou TC, Talalay P, Quantitative analysis of dose-effect relationships: the combined effects of multiple drugs or enzyme inhibitors. Adv Enzyme Regul 22: 27-55 (1984), which is incorporated by reference in its entirety. The methods of Chou-Talalay are carried out using the CI-isobol method.
The median-effect equation models the effect of an inhibitor (such as a drug) as Fa/Fu=(D/D50)^m, where D is the dose, Fa and Fu is the fraction of the system affected and unaffected by the dose D (Fa+Fu=1); D50 is the dose producing the median effect (e.g. IC50, ED50, LD50). The constant m determines the shape of the dose-effect curve.

## MOR00208: anti-CD19 antibody; heavy chain SEQ ID NO: 14, light chain SEQ ID NO: 15
Exp 2, same effect as MOR00208 1.50E−02 μg/mL + venetoclax 6.5 μM
  Theoretical MOR00208 Dose: * 1.00E+03^ μg/mL
Exp 2, same effect as MOR00208 1.50E−02 μg/mL + venetoclax 10.0 μM
  Theoretical MOR00208 Dose: * 1.00E+03^ μg/mL
Exp 2, same effect as MOR00208 1.50E−03 μg/mL + venetoclax 3.0 μM
  Theoretical MOR00208 Dose: 0.00188 µg/mL
Exp 2, same effect as MOR00208 1.50E−03 μg/mL + venetoclax 6.5 μM
  Theoretical MOR00208 Dose: 0.01 µg/mL
Exp 2, same effect as MOR00208 1.50E−03 μg/mL + venetoclax 10.0 μM
  Theoretical MOR00208 Dose: * 1.00E+03^ μg/mL
Exp 2, same effect as MOR00208 1.50E−04 μg/mL + venetoclax 3.0 μM
  Theoretical MOR00208 Dose: 0.000155 µg/mL
Exp 2, same effect as MOR00208 1.50E−04 μg/mL + venetoclax 6.5 μM
  Theoretical MOR00208 Dose: 0.000591 µg/mL
Exp 2, same effect as MOR00208 1.50E−04 μg/mL + venetoclax 10.0 μM
  Theoretical MOR00208 Dose: 0.00289 µg/mL
Exp 2, same effect as MOR00208 1.50E−05 μg/mL + venetoclax 3.0 μM
  Theoretical MOR00208 Dose: 1.94e-05 µg/mL
Exp 2, same effect as MOR00208 1.50E−05 μg/mL + venetoclax 6.5 μM
  Theoretical MOR00208 Dose: 0.000109 µg/mL
Exp 2, same effect as MOR00208 1.50E−05 μg/mL + venetoclax 10.0 μM
  Theoretical MOR00208 Dose: 0.000725 µg/mL
Exp 2, same effect as MOR00208 1.50E−06 μg/mL + venetoclax 6.5 μM
  Theoretical MOR00208 Dose: 2.9e-05 µg/mL
Exp 2, same effect as MOR00208 1.50E−06 μg/mL + venetoclax 10.0 μM
  Theoretical MOR00208 Dose: 0.000145 µg/mL
Exp 3, MOR00208 1.50E+00 μg/mL
  Actual MOR00208 Effect: 74.8 % dead cells
Exp 3, MOR00208 1.50E−02 μg/mL
  Actual MOR00208 Effect: 69.1 % dead cells
Exp 3, MOR00208 1.50E−03 μg/mL
  Actual MOR00208 Effect: 45.3 % dead cells
Exp 3, MOR00208 1.50E−04 μg/mL
  Actual MOR00208 Effect: 26.6 % dead cells
Exp 3, MOR00208 1.50E−05 μg/mL
  Actual MOR00208 Effect: 18.9 % dead cells
Exp 3, MOR00208 1.50E−06 μg/mL
  Actual MOR00208 Effect: 11.8 % dead cells
Exp 3, same effect as MOR00208 1.50E+00 μg/mL + venetoclax 3.0 μM
  Theoretical MOR00208 Dose: * 1.00E+03^ μg/mL
Exp 3, same effect as MOR00208 1.50E+00 μg/mL + venetoclax 6.5 μM
  Theoretical MOR00208 Dose: * 1.00E+03^ μg/mL
Exp 3, same effect as MOR00208 1.50E+00 μg/mL + venetoclax 10.0 μM
  Theoretical MOR00208 Dose: * 1.00E+03^ μg/mL
Exp 3, same effect as MOR00208 1.50E−02 μg/mL + venetoclax 3.0 μM
  Theoretical MOR00208 Dose: 0.279 µg/mL
Exp 3, same effect as MOR00208 1.50E−02 μg/mL + venetoclax 6.5 μM
  Theoretical MOR00208 Dose: * 1.00E+03^ μg/mL
Exp 3, same effect as MOR00208 1.50E−02 μg/mL + venetoclax 10.0 μM
  Theoretical MOR00208 Dose: * 1.00E+03^ μg/mL
Exp 3, same effect as MOR00208 1.50E−03 μg/mL + venetoclax 3.0 μM
  Theoretical MOR00208 Dose: 0.00152 µg/mL
Exp 3, same effect as MOR00208 1.50E−03 μg/mL + venetoclax 6.5 μM
  Theoretical MOR00208 Dose: 0.00652 µg/mL
Exp 3, same effect as MOR00208 1.50E−03 μg/mL + venetoclax 10.0 μM
  Theoretical MOR00208 Dose: * 1.00E+03^ μg/mL
Exp 3, same effect as MOR00208 1.50E−04 μg/mL + venetoclax 3.0 μM
  Theoretical MOR00208 Dose: 0.000218 µg/mL
Exp 3, same effect as MOR00208 1.50E−04 μg/mL + venetoclax 6.5 μM
  Theoretical MOR00208 Dose: 0.000602 µg/mL
Exp 3, same effect as MOR00208 1.50E−04 μg/mL + venetoclax 10.0 μM
  Theoretical MOR00208 Dose: 0.0042 µg/mL
Exp 3, same effect as MOR00208 1.50E−05 μg/mL + venetoclax 3.0 μM
  Theoretical MOR00208 Dose: 2.9e-05 µg/mL
Exp 3, same effect as MOR00208 1.50E−05 μg/mL + venetoclax 6.5 μM
  Theoretical MOR00208 Dose: 0.000157 µg/mL
Exp 3, same effect as MOR00208 1.50E−05 μg/mL + venetoclax 10.0 μM
  Theoretical MOR00208 Dose: 0.000983 µg/mL
Exp 3, same effect as MOR00208 1.50E−06 μg/mL + venetoclax 6.5 μM
  Theoretical MOR00208 Dose: 2.67e-05 µg/mL
Exp 3, same effect as MOR00208 1.50E−06 μg/mL + venetoclax 10.0 μM
  Theoretical MOR00208 Dose: 0.000371 µg/mL
Very low doses of MOR00208
  Effect in ADCC cell killing assays (in words): little or no effect

— patent US12358983B2, “Combination of anti CD19 antibody with a BCL-2 inhibitor and uses thereof” (Incyte Corporation, priority 2016, dated 2025)
